According to article PMC6037691, “Selenazolyl-hydrazones as Novel Selective MAO Inhibitors With Antiproliferative and Antioxidant Activities: Experimental and In-silico Studies” (Frontiers in Chemistry, 2018):

Columns and labels:
MAO A = target: T1, MAO A (Homo sapiens, UniProt P21397); assay: MAO A inhibition, discontinuous fluorimetric kynuramine assay; type: biochemical; details: for inhibition at 1 µM: 1 μM inhibitor, mean ± SD, n = 2, normalized to control
T1 construct: purchased Sigma-Aldrich
T1 sequence (P21397 1-527): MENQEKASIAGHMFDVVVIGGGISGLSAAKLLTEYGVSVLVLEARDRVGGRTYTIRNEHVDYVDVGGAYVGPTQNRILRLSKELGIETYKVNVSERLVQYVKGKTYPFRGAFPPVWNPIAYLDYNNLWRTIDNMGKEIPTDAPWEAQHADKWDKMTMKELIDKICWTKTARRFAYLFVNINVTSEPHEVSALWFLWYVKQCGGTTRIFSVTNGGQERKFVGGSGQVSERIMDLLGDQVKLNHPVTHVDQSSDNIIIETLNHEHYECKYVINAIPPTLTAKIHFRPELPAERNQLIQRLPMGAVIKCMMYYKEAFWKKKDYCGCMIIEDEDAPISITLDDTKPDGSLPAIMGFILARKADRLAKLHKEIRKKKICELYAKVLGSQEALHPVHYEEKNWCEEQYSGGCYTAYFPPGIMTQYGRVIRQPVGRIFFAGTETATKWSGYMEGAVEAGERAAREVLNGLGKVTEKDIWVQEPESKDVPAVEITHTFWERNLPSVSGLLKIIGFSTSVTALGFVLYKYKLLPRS
Procedure: MAO A and B inhibition capacities were investigated using a discontinuous fluorimetric assay (Meiring et al., [2013]) as described previously by using human recombinant membrane-bound MAO purchased from Sigma-Aldrich (Affini et al., [2018]). Briefly, remained enzyme activity with inhibitor, either 1 μM (one-point) or concentrations ranging from 0.0001 to 10 μM, was assessed in the presence of kynuramine [2 × KM, KM = 20 μM (MAO A), KM = 30 μM (MAO B)] in potassium phosphate buffer (pH 7.4). Reactions were started by addition of enzyme and stopped by manual addition of sodium hydroxide (2 N) after 20 min. Enzyme activity was determined by detection of 4-hydroxyquinoline (λEx = 320 nm, λEm = 405 nm). Data were analyzed using GraphPad PRISM 6. For one-point measurements data were calculated as percentage of control and expressed as mean ± standard deviation (%). […] Data were obtained from two (one-point measurements) or at least three (IC50 values) independent experiments, each performed in duplicates.

[1] = DPPH scavenging antioxidant assay; details: concentration providing 50% of radicals scavenging activity; mean ± SD, n = 3
Procedure: The experiments were performed according to the literature protocol (Prior et al., [2005]). All tested compounds were initially dissolved in DMSO. The initial concentration of DPPH in methanol was 6.58 × 10^−5 M. A volume of 140 μL of DPPH solution was placed into a 96-well microplate, and then 10 μL solution of the tested compounds was added. Pure DMSO (10 μL) was used as the control. The absorbance at 517 nm was measured after 30 min period of incubation in the dark at 25°C. The Equation (1) was used for calculation of the scavenging activity:
(1) Scavenging activity (%)=Acontrol- Asample/Acontrol×100
where Asample and Acontrol refer to the absorbances at 517 nm of the sample and control, respectively. IC50 values were calculated from the graph of scavenging activity against the concentrations of the samples. IC50 represents the total antioxidant concentration of the sample which decreases the amount of the initial DPPH radical by 50%. Ascorbic acid (vitamin C) was used as positive control (concentration range 10–500 μM).

T-47D (breast) = assay: Antiproliferative activity, T-47D; type: cell-based, human
Procedure: (§1) The in vitro antiproliferative activity of investigated compounds was evaluated against six human solid tumor cell lines: A549 (non-small cell lung), HBL-100, (breast), HeLa (cervix), SW1573 (non-small cell lung), as drug sensitive lines, T-47D (breast) and WiDr (colon) as drug resistant lines. These cell lines were a kind gift from Prof. G. J. Peters (VU Medical Center, Amsterdam, The Netherlands). For selectivity studies, the human fibroblasts BJ-hTert cell line was used, which was obtained from Dr. R. Freire (HUC, Tenerife, Canary Islands). Cells were kept in culture medium under standard conditions: RPMI 1640 medium, fetal bovine serum (5%), glutamine (2 mM), penicillin G (100 units/mL) and streptomycin (0.1 mg/mL). Antiproliferative tests were conducted as described earlier (Skehan et al., [1990]; Miranda et al., [2006]). Tested compounds were dissolved in DMSO at an initial concentration of 40 mM. DMSO was used as negative control (0.25% v/v). Antiproliferative activity of the compounds was expressed as GI50, which is the concentration of the compound that inhibits 50% of the culture growth.

[2] = tested on: six human solid tumor cell lines; assay: Antiproliferative activity, panel as a whole; type: cell-based; design: key: moderate activity (GI50 = 10–100 μM); good activity (GI50 = 1–10 μM); inactive (GI50 > 100 μM); details: five cell lines of the six
Procedure: as §1

| Structure (SMILES) | inhibition at 1 µM (MAO A) [%] | IC50 (MAO A; mean, 95% CI, at least three experiments) [µM] | IC50 [1] [µM] | GI50 (T-47D (breast); Homo sapiens, T47D) [µM] | antiproliferative activity class T-47D (T-47D (breast); T-47D) | GI50 (T-47D (breast); Homo sapiens, T47D, T-47D) [µM] | GI50 (T-47D (breast); T-47D) [µM] | antiproliferative activity class against five cell lines [2] |
| --- | --- | --- | --- | --- | --- | --- | --- | --- |
| C(=NNc1nc(-c2ccccc2)c[se]1)c1ccccc1 [Compound 1, 2-(2-benzylidenehydrazinyl)-4-phenyl-1,3-selenazole] | -6.8 ± 12.6 | > 10 | 8.63 ± 1.66 | 6.4 ± 0.9 | good activity (good activity (GI50 = 1–10 μM)) |  |  |  |
| COc1ccc(-c2c[se]c(NN=Cc3ccccc3[N+](=O)[O-])n2)cc1 [Compound 2-OMe, 4-(4-methoxyphenyl)-2-(2-(2-nitrobenzylidene)hydrazinyl)-1,3-selenazole] | 28 ± 4 |  | 40.5 ± 3.8 |  |  | 36 ± 8.6 |  |  |
| O=[N+]([O-])c1ccccc1C=NNc1nc(-c2ccccc2)c[se]1 [Compound 2, 2-(2-(2-nitrobenzylidene)hydrazinyl)-4-phenyl-1,3-selenazole] | 26.5 ± 3.7 |  | 21.9 ± 5.6 |  |  | ~10 | 12 ± 1.5 |  |
| COc1ccc(-c2c[se]c(NN=Cc3cccc([N+](=O)[O-])c3)n2)cc1 [Compound 3-OMe, 4-(4-methoxyphenyl)-2-(2-(3-nitrobenzylidene)hydrazinyl)-1,3-selenazole] | 31.2 ± 1.6 |  | 298 ± 14.8 |  |  | 67 ± 2.2 |  |  |
| Cc1ccc(-c2c[se]c(NN=Cc3ccccc3[N+](=O)[O-])n2)cc1 [Compound 2-Me, 2-(2-(2-nitrobenzylidene)hydrazinyl)-4-(p-tolyl)-1,3-selenazole] | 17.2 ± 1.9 |  | 20.2 ± 4.3 |  |  | ~10 | 13 ± 1.3 |  |
| Cc1ccc(-c2c[se]c(NN=Cc3cccc([N+](=O)[O-])c3)n2)cc1 [Compound 3-Me, 2-(2-(3-nitrobenzylidene)hydrazinyl)-4-(p-tolyl)-1,3-selenazole] | 13.4 ± 2.4 |  | 152 ± 10.1 |  |  | 46 ± 9.7 |  |  |
| O=[N+]([O-])c1cccc(C=NNc2nc(-c3ccccc3)c[se]2)c1 [Compound 3, 2-(2-(3-nitrobenzylidene)hydrazinyl)-4-phenyl-1,3-selenazole] | 32.7 ± 6.2 |  | 174 ± 11.6 |  |  | 52 ± 13 |  |  |
| COc1ccc(-c2c[se]c(NN=Cc3ccccc3)n2)cc1 [Compound 1-OMe, 2-(2-benzylidenehydrazinyl)-4-(4-methoxyphenyl)-1,3-selenazole] | 32.4 ± 3.3 |  | 54.3 ± 4.54 |  |  | > 100 |  | inactive |
